Measured values published in patent US7985836B2, “Antimicrobial peptides and methods of identifying the same” (priority 2006, dated 2011).
Read-outs that look alike come from different tables or passages of the source. Square brackets hold non-standard residues; d marks the D form. Ends that are not written are not given here. Peptide text beside a SMILES is read from it. Phg = N[C@H](C(=O)O)c1ccccc1

Experiments:
[1] = Analytical reversed-phase HPLC retention time as a measure of hydrophobicity; assay type: physicochemical; settings: for tRP, retention time on a reverse-phase column of HPLC as a measure of hydrophobicity: Table 4, 1 ml/min; for tRP, retention time on a reverse-phase column of HPLC as a measure of hydrophobicity / tRP, retention time on a reversed-phase HPLC column as a measure of hydrophobicity: Vydac C18, acetonitrile 5% to 95%; for tRP, retention time on a reversed-phase HPLC column as a measure of hydrophobicity: Table 1, 1 mL/min, ~25° C.
Description: Analytical Reversed-Phase HPLC. The retention time of the peptide was measured on an ISCO (Lincoln, Nebr.) HPLC system equipped with a Vydac (Hesperia, Calif.) C18 reversed-phase column (250×4.6 mm) at an ambient temperature of ˜25° C. The peptide was eluted with a linear gradient of acetonitrile (containing 0.1% TFA) from 5% to 95% at a flow rate of 1 mL/min. Peptides were detected by UV absorbance at 215 nm.
Analytical reverse-phase HPLC. The retention time of each peptide was measured on an ISCO HPLC system equipped with aVydac C18 reverse-phase column (250×4.6 mm). The peptide was eluted with a linear gradient of acetonitrile (containing 0.1% TFA) from 5% to 95% at a flow rate of 1 ml/min. Peptides were detected by UV absorbance at 215 nm.

[2] = test system: Escherichia coli D21; settings: Escherichia coli D21, previous assays (Johansson 1998; Oren 1999); cited from earlier work
[3] = test system: wild type E. coli K12; assay type: cell-based
Description: Antibacterial Assays. The antibacterial activity of the LL-37 peptides and its analogues was analyzed using the standard approach of microdilution (Wang et al. (2005) J. Biol. Chem., 280:5803-5811; Yu et al. (2002) J. Pept. Res., 60:1-9). In brief, a small culture of wild type E. coli K12 was grown overnight. A fresh culture was inoculated with a small aliquot of the overnight culture and incubated at 37° C. until the optical density reached the mid-logarithmic stage. The culture (90 μL each) was then diluted to an A600 of 0.001 and partitioned into a 96-well plate with ˜10^6 cells per well. […] Each peptide assay was repeated 3 times. The plate was then further incubated at 37° C. overnight (˜16 hours) and read on an Ultra Microplate Reader at 620 nm (Bio-TEK Instruments; Winooski, Vt.).

[4] = Cytotoxicity MTT assay, HBMEC; assay type: cell-based; settings: normal human cells, peptide concentration that kills 50% of the cells, 68 hours of exposure, read-out: HBMEC LC50
Description: (§1) Anticancer Assays. Cytotoxicity studies were performed using the calorimetric MTT assays for assessing cell viability (Mark et al. (1999) Life Sci., 64:1941-1953; Hansen et al. (1989) J. Immunol. Methods, 119:203-210). Three cell lines were used, including drug-resistant KBv, drug-sensitive KB, and the nontransformed human brain microvessel endothelial cells (HBMEC). In brief, the cells were seeded onto 96-well plates at a density of 5000 cells per well. The cells were exposed to various concentrations (5-320 μM) of LL-37 peptides (triplicate assays for each) 24 hours after seeding. After 68 hours of exposure, the peptide solution was replaced with fresh media and followed by cytotoxicity analysis using the MTT assay.
(§2) The MTT assay was performed by incubating the cells with 5 mg/mL of 3-[4,5-dimethylthiazol-2-yl]-2,5-dephenyltetrazolium bromide (MTT) for 2 hours at 37° C. The cells were then solubilized in a 50:50 mixture of dimethyl formamide (DMF) and H2O containing 20% SDS (pH 4.7). The plates were read after overnight incubation. Viability is directly proportional to the amount of metabolic conversion of MTT to formazin in the mitochondria of living cells and is assessed by measuring the absorbance at 550 nm using a Microkinetics Reader (Fisher Biotech). Viability is expressed as a percent of control cells receiving only culture media without any peptides. The data from the cytotoxicity studies were plotted using Microsoft Excel, and the LC50 (concentration resulting in 50% reduction in cell viability) and standard deviations were determined for each peptide.

[5] = test system: drug-resistant KBv; experiment: Anticancer/cytotoxicity MTT assay, KBv cells; assay type: cell-based; settings: peptide concentration that kills 50% of the cells, 68 hours of exposure, read-out: KBv LC50
Description: as §1, §2

[6] = test system: drug-sensitive KB; assay type: cell-based; settings: peptide concentration that kills 50% of the cells; MTT, 68 hours of exposure
Description: as §1, §2

[7] = test system: E. coli strain K12 3000; settings: minimum concentration at which E. coli growth is completely inhibited; from Wang et al. (2005) J. Biol. Chem. 280:5803; cited from earlier work
[8] = test system: E. coli strain K12 3000; experiment: Antibacterial assay, microdilution MIC (Example 2); assay type: cell-based; settings: minimum concentration at which E. coli growth is completely inhibited
Description: Antibacterial assay. The antibacterial activity of the peptides was analyzed using the standard microdilution approach (Wang et al. (2005) J. Biol. Chem., 280:5803-5811). In brief, a small culture of E. coli strain K12 3000 was grown overnight. A fresh culture was inoculated with a small aliquot of the overnight culture and incubated at 37° C. until the culture reached the logarithmic stage (A600 ˜0.5, 9×10^8 cells/ml). The culture was then diluted to A600 ˜0.001 and partitioned into a 96-well plate with ˜10^6 cells per well (90 μl each). Then, 10 μl aliquots of the peptide at different concentrations (three assays for each) were added to the cultures, allowing the minimum inhibition concentration (MIC) to be measured. The plate was then further incubated overnight (˜16 hours) at 37° C. and read on an Ultra Microplate Reader at 620 nm (Bio-TEK Instruments).

[9] = minimum inhibitory concentration, wild type E. coli K12, overnight (~16 hours) at 37° C.

In the case of CC[C@H](C)[C@H](NC(=O)[C@H](CCCCN)NC(=O)[C@H](CCCCN)NC(=O)[C@@H](NC(=O)[C@@H](NC(=O)[C@H](CC(=O)O)NC(=O)[C@H](Cc1ccccc1)NC(=O)[C@H](CC(C)C)NC(=O)CN)[C@@H](C)CC)[C@@H](C)CC)C(=O)N[C@@H](C)C(=O)N[C@@H](CCC(=O)O)C(=O)N[C@@H](CO)C(=O)N[C@H](C(N)=O)c1ccccc1 [F13X-aurein 1.2, GLFDIIKKIAESX] (H-GLFDIIKKIAES[Phg]-NH2; N-terminus and C-terminus assumed), the “retention time on reversed-phase HPLC (hydrophobicity)” value (“retention time on reversed-phase HPLC” below) [1] is reported as 38.3 min and the “tRP, retention time on a reverse-phase column of HPLC as a measure of hydrophobicity” value (“tRP … of HPLC as a measure of hydrophobicity” for short) [1] is reported as 38.3 min.
For CC[C@H](C)[C@H](NC(=O)[C@H](CCCCN)NC(=O)[C@H](CCC(=O)O)NC(=O)[C@H](CCCCN)NC(=O)[C@H](CO)NC(=O)[C@H](CCCCN)NC(=O)[C@H](CCCNC(=N)N)NC(=O)[C@H](Cc1ccccc1)NC(=O)[C@H](Cc1ccccc1)NC(=O)[C@H](CC(=O)O)NC(=O)CNC(=O)[C@H](CC(C)C)NC(=O)[C@@H](N)CC(C)C)C(=O)NCC(=O)N[C@@H](CCCCN)C(=O)N[C@@H](CCC(=O)O)C(=O)N[C@@H](Cc1ccccc1)C(=O)N[C@@H](CCCCN)C(=O)N[C@@H](CCCNC(=N)N)C(=O)N[C@H](C(=O)N[C@H](C(=O)N[C@@H](CCC(N)=O)C(=O)N[C@@H](CCCNC(=N)N)C(=O)N[C@H](C(=O)N[C@@H](CCCCN)C(=O)N[C@@H](CC(=O)O)C(=O)N[C@@H](Cc1ccccc1)C(=O)N[C@@H](CC(C)C)C(=O)N[C@@H](CCCNC(=N)N)C(=O)N[C@@H](CC(N)=O)C(=O)N[C@@H](CC(C)C)C(=O)N[C@H](C(=O)N1CCC[C@H]1C(=O)N[C@@H](CCCNC(=N)N)C(=O)N[C@H](C(=O)N[C@@H](CCC(=O)O)C(=O)N[C@@H](CO)C(=O)O)[C@@H](C)O)C(C)C)[C@@H](C)CC)C(C)C)[C@@H](C)CC [LL-37, reference compound], the MIC [2] is listed as 5 to 25 µM and the “E. Coli MIC” value [3, 9] is listed as 40 µM.
For “FKRIVQRIKDFLR-NH2 [LL-37(17-29), FKRIVQRIKDFLR]”, the CC50 at 68 h [4] was 55 ± 2 µM, the CC50 [5] was 60 µM and the “E. Coli MIC” value [3, 9] was 40 µM. The “KB LC50” value [6] was 57 ± 3 µM.
In the case of “FKRIVQRIKDFLRNLV-NH2 [LL-37(17-32), FKRIVQRIKDFLRNLV]”, the CC50 at 68 h [4] is reported as 25 ± 1 µM, the CC50 [5] is reported as 30 µM and the “E. Coli MIC” value ([3]; K12, 16 h) is reported as 20 µM. For the same compound, the “KB LC50” value [6] was 30 ± 1 µM.
In the case of “GLFDIIKKIAESF [aurein 1.2, antimicrobial and anticancer peptide isolated from the Australian Bell Frog, reference compound]”, the “retention time on reversed-phase HPLC” value [1] is reported as 43 min, the “tRP, retention time on a reversed-phase HPLC column as a measure of hydrophobicity” value [1] is reported as 42.0 min and the “tRP … of HPLC as a measure of hydrophobicity” value [1] is reported as 43.0 min. The MIC [7] was 75 µM.
In the case of “GLFDIIKKIAESW-NH2 (C-terminus assumed) [F13W-aurein 1.2, GLFDIIKKIAESW]”, the “tRP … of HPLC as a measure of hydrophobicity” value [1] is reported as 40.5 min and the MIC [8] is reported as 320 µM.
In the case of “GLFDKLKSLVSDDKK [anchor, bacterial membrane anchor of glucose-specific enzyme IIA of E. coli, reference compound]”, the “retention time on reversed-phase HPLC” value [1] is reported as 29.5 min, the “tRP, retention time on a reversed-phase HPLC column as a measure of hydrophobicity” value [1] is reported as 29.5 min and the “tRP … of HPLC as a measure of hydrophobicity” value [1] is reported as 29.5 min.
With “IGKEFKRIVQRIKDFLRNLVPRTES [LL-37(13-37)]” the CC50 at 68 h [4] was 38 ± 3 µM, the CC50 [5] was 39 µM and the “E. Coli MIC” value ([3]; K12, 16 h) was 80 µM. The “KB LC50” value [6] was 40 ± 0 µM.
For “LLGDFFRKSKEK [LL-37(1-12), LLGDFFRKSKEK]”, the CC50 at 68 h [4] was greater than 320 µM and the CC50 [5] was greater than 320 µM.
For “LLGDFKRIVQRIKDF-NH2 [LL-37(1-4, 17-27), LLGDFKRIVQRIKDF]”, the CC50 at 68 h [4] was greater than 320 µM, the CC50 [5] was greater than 320 µM and the “E. Coli MIC” value [3, 9] was 250 µM.
In the case of “RLFDKIRQVIRKF-NH2 (C-terminus assumed) [LLAA, RLFDKIRQVIRKF]”, the “retention time on reversed-phase HPLC” value [1] is reported as 30.8 min and the “tRP … of HPLC as a measure of hydrophobicity” value [1] is reported as 30.8 min.
